In patent publication US20210310069A1, “METHODS FOR DETERMINING GENE-ALPHA TOCOPHEROL INTERACTIONS” (BodySync. Inc., priority 2009, published 2021):

Legend:
[1] = Fasting plasma alpha-tocopherol by fluorimetry in healthy men supplemented with αT for six weeks; type: in vivo, human; details: for fasting plasma αT mean: 6-weeks
Description: (§1) Healthy middle-aged male volunteers (mean age 52.7±10 years; median years) were given dietary supplements of either […] (moderate dose), or […] (high dose) RRR-α tocopherol per day for six weeks. Subject numbers in each group were 57 and 102 respectively. All research participants gave written informed consent to take part. The study protocol was approved by the Southampton University Hospitals Trust Clinical Ethics Committee authorized the research protocol. Study participants continued with their normal diets while receiving the supplements. Subjects continued with their normal daily activities while on the study but visited the Wellcome Trust Clinical Research Facility at Southampton University Hospital Trust, after an overnight fast, at the beginning and end of the supplementation period. At the visit weight, height, and waist and hip circumference were measured, and blood samples taken for the measurement of cytokines.
(§2) Alpha-tocopherol in plasma was determined using fluorimetry according to methods described elsewhere (11). The limit of detection for αT was 7.2 pmol/L. Peripheral blood mononuclear cells (PBMCs) were prepared from heparinized whole blood samples using Leucosep sterile centrifuge tubes (Greiner Bio-one, Germany) and Histopaque gradient solution (Sigma-Aldrich Inc, MO, USA) and cultured in the presence of Lipopolysaccharide (LPS) (Sigma-Aldrich Inc, MO, USA) for 24h after which time the supernatants were removed and stored. Interleukin-6 (IL-6), tumor necrosis factor (TNF) and interleukin-1β (IL-1β) protein levels were quantitatively measured by the BD CBA Human Inflammation Kit (BD Bioscience, San Jose, Calif., USA). The operations were performed according to the manufacturer's instructions. The intensity of the fluorescence signal was acquired on a fluorescence activated cell sorter (FACS) flow cytometer (BD Becton-Dickinson), and analyzed using CBA software. The concentration range for detection using this assay is 20-5000 pg/ml for each of the proteins.

TNFα = TNFα level of LPS-cultured PBMCs (BD CBA Human Inflammation Kit) from healthy men after 6 weeks of αT supplementation; type: in vivo; details: for PMBC cytokine levels TNFα mean: 6-weeks
Description: as §1, §2
(§3) A linear regression was carried out where the outcome variable was Log(DeltaCk+minDeltaCk) Where Ck stands for IL-1, IL-6 or TNF-alpha. And DeltaCk=Followup-Baseline serum cytokine levels, and minDelta the most negative DeltaCk (<0) observed in the population baseline value, alpha tocopherol dose group, smoking status (age+BMI) were included as covariates.

IL-1 = IL-1 (IL-1β) level of LPS-cultured PBMCs (BD CBA Human Inflammation Kit) from healthy men after 6 weeks of αT supplementation; type: in vivo; details: for PMBC cytokine levels IL-1 mean: 6-weeks
Description: as §1, §2, §3

IL-6 = IL-6 level of LPS-cultured PBMCs (BD CBA Human Inflammation Kit) from healthy men after 6 weeks of αT supplementation; type: in vivo; details: for PMBC cytokine levels IL-6 mean: 6-weeks
Description: as §1, §2, §3

[2] = subjects who took vitamin E supplements; adjusted for age, smoking status, intake of carotene and vitamin C; cited from earlier work

What does the source list for `Cc1c(C)c2c(c(C)c1O)CC[C@@](C)(CCC[C@H](C)CCC[C@H](C)CCCC(C)C)O2` [αT, RRR-α tocopherol]?
fasting plasma αT mean ([1]; 75 IU/d, n = 57 healthy males): 22.6 µmol/L; fasting plasma αT mean ([1]; 600 IU/d, n = 102 healthy males): 31.3 µmol/L; change in plasma fasting levels of alpha-tocopherol ([1]; both dose groups (75 and 600 IU/d), 6 weeks): increase; PMBC cytokine levels TNFα mean (TNFα; 75 IU/d): 1.48 ng/L; PMBC cytokine levels TNFα mean (TNFα; 600 IU/d): 1.31 ng/L; change in TNFα by genotype (TNFα; GA genotype at TNF-238, 6 weeks, p<0.016 after correcting for multiple tests): decrease; change in serum levels of TNFα (TNFα; both treatment groups, 6 weeks): increase; change in serum levels of TNFα by genotype (TNFα; genotypes AG and AA for IL10-1082 SNP and GG for TNF-238 SNP, 6 weeks): increase; increase in TNFα after supplementation (TNFα; low-dose group (75 IU/d), 6 weeks, p<0.011 after adjusting for age, baseline levels, smoking status and BMI): 40.5%; PMBC cytokine levels IL-1 mean (IL-1; 75 IU/d): 7.38 ng/L; PMBC cytokine levels IL-1 mean (IL-1; 600 IU/d): 6.93 ng/L; change in IL1 levels by genotype (IL-1; GG carriers at IL10-1082, 6 weeks): lower increase; change in IL-1 levels by genotype (IL-1; GG genotype at GSTP1 313, 6 weeks, not significant after FDR correction): decrease; change in serum levels of IL-1 (IL-1; both treatment groups, 6 weeks): increase; change in IL1 levels by genotype (IL-1; common genotypes at IL10-592 (CC) and IL10-819, 6 weeks): lower increase; PMBC cytokine levels IL-6 mean (IL-6; 75 IU/d): 18.71 ng/L; PMBC cytokine levels IL-6 mean (IL-6; 600 IU/d): 16.73 ng/L; change in IL-6 serum levels by genotype (IL-6; GSTP1 313 AG and GG carriers (so in the source), 6 weeks): increase; change in IL-6 levels by genotype (IL-6; SOD-28 TT versus CT and CC variants, 6 weeks, not significant after adjusting for multiple tests): lower increase; change in serum levels of IL-6 (IL-6; both treatment groups, 6 weeks): increase; change in IL-6 levels by genotype (IL-6; variant homozygotes GSTP1 313 (GG), 6 weeks, p<0.019): decreased levels

Which “reduction of major coronary heart disease” value [2] does the source give for vitamin E here?
Its value is 30%.
